Assay results from patent publication US20240373851A1, “PEST CONTROL COMPOSITION AND PEST CONTROL METHOD” (SUMITOMO CHEMICAL COMPANY, LIMITED, priority 2021, published 2024).

What was measured:
Assay type in all cases: in vivo
[1] = test system: German cockroaches (Blattella germanica); assay: Test Example 4: control test against German cockroaches, spray in chamber; conditions: adult German cockroaches; 1.5 mL sprayed; concentration [%]: nicofluprole 0.01, imiprothrin 0.01, deltamethrin 0.0002, alone or mixed; 45 minutes after spraying
Protocol: (§1) Next, the usefulness of the inventive composition for controlling pests will be indicated by Test Examples. In general, the control effect to be expected when treated with a mixture obtained by mixing given two or three types of active ingredient compounds is determined by the Colby's calculation equation represented by the following [Equation 1] and [Equation 2].
(§2) [formula] • P: moribund and mortal rates (%) when treated with an active ingredient compound X in the concentration of m [ppm] • Q: moribund and mortal rates (%) when treated with an active ingredient compound Y in the concentration of n [ppm] • EA: moribund and mortal rates (%) when treated with an active ingredient compound X in the concentration of m [ppm] and an active ingredient compound Y in the concentration of n [ppm] (hereinafter referred to as expected value A) […]
(§3) Regarding the synergistic effect of three types of the active ingredient compounds, in case where the moribund and mortal rates (%) when actually treated with a mixture obtained by mixing three types of the active ingredient compounds exceed the expected value A calculated by using the moribund and mortal rates (%) when actually treated with a mixture obtained by mixing two types of the active ingredient compounds among three types thereof, and the moribund and mortal rates (%) calculated when actually treated the remaining one type of the active ingredient compound, or the expected value B (%) calculated from the moribund and mortal rates (%) when actually treated with each of three types of the active ingredient compounds alone, it was determined that the synergistic effect exists. […]

[2] = test system: German cockroaches (Blattella germanica); assay: Test Example 8: control test against German cockroaches, spray in chamber; conditions: adult German cockroaches; 1.5 mL sprayed; concentration [%]: nicofluprole 0.01, imiprothrin 0.01, phenothrin 0.1, alone or mixed; 45 minutes after spraying
Protocol: as §1, §2, §3

[3] = test system: German cockroaches (Blattella germanica); assay: Test Example 6: control test against German cockroaches, spray in chamber; conditions: adult German cockroaches; 1.5 mL sprayed; concentration [%]: isocycloseram 0.05, imiprothrin 0.01, lambda-cyhalothrin 0.0025, alone or mixed; 60 minutes after spraying
Protocol: as §1, §2, §3

[4] = test system: German cockroaches (Blattella germanica); assay: Test Example 11: control test against German cockroaches, spray in chamber; conditions: adult German cockroaches; 1.5 mL sprayed; concentration [%]: isocycloseram 0.01, imiprothrin 0.01, permethrin 0.05, alone or mixed; 120 minutes after spraying
Protocol: as §1, §2, §3

C#CCN1CC(=O)N(COC(=O)[C@@H]2C(C=C(C)C)C2(C)C)C1=O (mixture of isomers) [Imiprothrin, imiprothrin]
Moribund and mortal rates [%] after 45 minutes [1]: 65% | Moribund and mortal rates [%] after 45 minutes [2]: 65% | Moribund and mortal rates [%] after 60 minutes [3]: 25% | Moribund and mortal rates [%] after 120 minutes [4]: 15%
